# Test results published in patent US20080171780A1, “Process for Crystallization of Ramipril and Preparation of a Hydrated Form Thereof” (LUPIN LIMITED, priority 2004, published 2008).
# Tests used:
# Assay type in all cases: physicochemical
# [1] = Bulk density (B.D.) of crystalline material
# Description: The bulk density is an economically, commercially, and functionally important property. […] Moreover, when shipping powders over long distances a high bulk density results in reducing the shipping volume. A high bulk density compound also saves packing material and storage capacity.
# [2] = Tapped density (T.D.) of crystalline material
# [3] = Stability study at 40° C./75% RH, assay by HPLC; settings: crystallized by Diethoxymethane
# [4] = In vitro drug release (dissolution) profile, USP apparatus 1, 0.1 N HCl; settings: 50 RPM, solid composition with pregelatinized starch
# Protocol: Optically pure Ramipril(I) obtained from example 1 is formulated as a solid pharmaceutical composition by conventional way of direct mixing process with excipients such as pregelatinized starch.
# Ramipril(I) monohydrate obtained from example 5 is formulated as a solid pharmaceutical composition by conventional way of direct mixing process with excipients such as pregelatinized starch.
# The in vitro drug release profile was carried out using USP apparatus 1,500 ml of 0.1 N HCl at 50 RPM. Following table provides a comparison of dissolution profile of Ramipril(I) crystallized from diethoxymethane as well as the Ramipril(I) monohydrate and prior art method.
# [5] = Thermal stability of the hydrate form; settings: converts to anhydrous form on heating above 40° C.
# Protocol: The novel hydrate of Ramipril(I) occurs in crystalline form. It is readily converted to the anhydrous moiety by heating at a temperature in the range from 40° C. to 42° C. under reduced pressure of 2 to 5 mm hg. The novel hydrate form is stable up to a temperature of 25° C. The monohydrate is transformed into anhydrous Ramipril(I), the so-called “anhydrate” on heating above 40° C. with a speed depending on the conditions of dehydration.
# [6] = Present invention, solvent 2,2-Dimethoxy-propane
# [7] = Present invention, solvent Diethoxymethane
# [8] = Present invention, solvent Methyl formate
# [9] = Present invention, solvent Nitromethane
# [10] = Prior art method, solvent Ethanol-diethyl ether
# [11] = Prior art method, solvent Ethanol-diisopropyl ether
smiles,measurement,setting,value
CCOC(=O)[C@H](CCc1ccccc1)N[C@@H](C)C(=O)N1[C@H](C(=O)O)C[C@@H]2CCC[C@@H]21 [anhydrous Ramipril(I)],bulk density,[1],0.3 to 0.35 g/mL
"CCOC(=O)[C@H](CCc1ccccc1)N[C@@H](C)C(=O)N1[C@H](C(=O)O)C[C@@H]2CCC[C@@H]21 [Ramipril(I), (2S,3aS,6aS)-1-[(S)-2-[[(S)-1-(ethoxycarbonyl)-3-phenylpropyl]-amino]propanoyl]octahydrocyclopenta[b]pyrrole-2-carboxylic acid]",B.D.,[1]; [6],0.1 to 0.13 g/mL
same,B.D.,[1]; [7],0.22 to 0.24 g/mL
same,B.D.,[1]; [8],0.11 to 0.13 g/mL
same,B.D.,[1]; [9],0.12 to 0.14 g/mL
same,B.D.,[1]; [10],0.09 to 0.12 g/mL
same,B.D.,[1]; [11],0.08 to 0.1 g/mL
same,T.D.,[2]; [6],0.14 to 0.18 g/mL
same,T.D.,[2]; [7],0.32 to 0.37 g/mL
same,T.D.,[2]; [8],0.15 to 0.17 g/mL
same,T.D.,[2]; [9],0.15 to 0.17 g/mL
same,T.D.,[2]; [10],0.15 to 0.17 g/mL
same,T.D.,[2]; [11],0.13 to 0.15 g/mL
same,Assay by HPLC(%),"[3]; 40° C. ± 2° C./75% ± 5% RH, 1 Month",99.5%
same,Assay by HPLC(%),"[3]; 40° C. ± 2° C./75% ± 5% RH, 2 Month",99.2%
same,Assay by HPLC(%),"[3]; 40° C. ± 2° C./75% ± 5% RH, 3 Month",99.12%
same,Assay by HPLC(%),[3]; Initial,99.68%
CCOC(=O)[C@H](CCc1ccccc1)N[C@@H](C)C(=O)N1[C@H](C(=O)O)C[C@@H]2CCC[C@@H]21 [Prior art Method],% Drug release of the Label claim,[4]; 5 Min.,18.8%
same,% Drug release of the Label claim,[4]; 10 Min.,75%
CCOC(=O)[C@H](CCc1ccccc1)N[C@@H](C)C(=O)N1[C@H](C(=O)O)C[C@@H]2CCC[C@@H]21.O [Monohydrate Ramipril(I)],% Drug release of the Label claim,[4]; 5 Min.,40.8%
same,% Drug release of the Label claim,[4]; 10 Min.,87%
same,temperature up to which the form is stable,[5],≤ 25 °C
"CCOC(=O)[C@H](CCc1ccccc1)N[C@@H](C)C(=O)N1[C@H](C(=O)O)C[C@@H]2CCC[C@@H]21 [Crystallised from Diethoxymethane, (2S,3aS,6aS)-1-[(S)-2-[[(S)-1-(ethoxycarbonyl)-3-phenylpropyl]-amino]propanoyl]octahydrocyclopenta[b]pyrrole-2-carboxylic acid]",% Drug release of the Label claim,[4]; 5 Min.,48.4%
same,% Drug release of the Label claim,[4]; 10 Min.,93.8%
